The numbers were not newly measured in paper PMC9610285 (Pharmaceutics, 2022), which cites them from elsewhere.

For this data set the following is noted: cited from earlier work.

As to `C#CCN[C@@H]1CCc2ccccc21` [rasagiline, Rasagiline], the water solubility entry is listed as “poorly water-soluble”.
